Assay results published in US20090227507A1, “Angiotensin (1-7) Dosage Forms and Uses Thereof” (UNIVERSITY OF SOUTHERN CALIFORNIA, priority 2008, published 2009).

Columns and labels:
Type in all cases: in vivo, human
[1] = Urinalysis with microscopic examination of sediment in healthy men; conditions: Subject 011, 200 μg/kg
Method: (§1) Laboratory measurements were conducted by a local clinical laboratory.
Blood, urobilinogen, ketones, glucose, protein, microscopic examination of sediment, sodium, and potassium.

[2] = tested on: CD4 cells in peripheral blood; test: Flow cytometry of peripheral blood, CD4 lymphocytes; USB003 SC once daily for 7 days in healthy men; set-up: key to Subjects with shift, Absolute CD4, N-L (normal to low) / Subjects with shift, Absolute CD4, N-H (normal to high) / Subjects with shift, Absolute CD4, H-N (high to normal) / Subjects with shift, Absolute CD4, L-N (low to normal): — signifies subject with no shift from baseline; conditions: for CD4, Absolute, Mean at Baseline: Baseline (Day 1)
Method: (§2) • Single-center, randomized, double-blind, placebo-controlled, 2 cohort dose-escalation trial of once daily dosing over a 7-day period (7 doses total): • Cohort 1: 2 subjects treated with placebo and 8 subjects treated with 200 μg/kg USB003 (A(1-7)) • Cohort 2: 2 subjects treated with placebo and 8 subjects treated with 300 μg/kg USB003 • For each cohort, there was a Screening Period, Treatment Phase, Follow-up Period, and Study Termination or Early Withdrawal Day. Subjects were confined to the study unit during the Treatment Phase. • Cohort 2 was treated approximately 1 week after completion of the Treatment Phase for Cohort 1 to allow time for the assessment of safety and tolerability in the first cohort.
(§3) Pharmacological Effect: The following evaluations (under efficacy and safety in the protocol) were performed: • Effects on the number of mature blood cells: • 1. CBC (with differential), platelet count, reticulocyte count. • Effects on early hematopoietic progenitor cells and mature lymphocyte subsets in the periphery: • 1. Flow cytometry to evaluate frequency of peripheral blood progenitor cells (eg, CD34^+) and lymphocyte subsets (eg, CD3, CD4, CD8) in peripheral blood. • 2. Collection of blood for later possible culture for progenitor cells (eg, colony forming units-granulocyte/macrophage [CFU-GM]) to evaluate potential effects on CD34^+ hematopoietic progenitor cells in peripheral blood. • 3.
(§4) The effect of USB003 on the number of mature blood cells was assessed by the complete blood count with differential, platelet and reticulocyte counts. The effects on early hematopoietic progenitor cells and mature lymphocyte subsets in the periphery were assessed by flow cytometry. In addition, blood was collected and processed to enable culture of progenitors at a later time.
(§5) Red blood cell (RBC) count, RBC indices, white blood cell count (WBC) with differential, reticulocyte count, platelet count, hemoglobin (Hb), hematocrit (Hct), plasma hemoglobin, peripheral flow cytometry, including CD34^+, flow cytometry for enumeration of CD3, CD4, and CD8 lymphocytes, and culture for progenitor cells in peripheral blood including colony-forming units-granulocyte/macrophage (CFU-GM).

[3] = Physical examination in healthy men; conditions: all dose groups; baseline (Day 1) to Day 20
Source text: On Day −1, subjects who met the eligibility criteria underwent a PE, vital sign measurements, and had samples drawn to evaluate clinical laboratory parameters. On Study Days 1 through 7 for each cohort, subjects received a single SC injection of USB003 at the assigned dose level or placebo. Subjects were kept in the clinic under observation for the entire Day −1 to Day 8 period. Subjects were discharged from the clinic on the morning of Day 8 after all scheduled procedures and a 24-hour urine collection had been completed. Subjects were scheduled to return to the clinic on Days 11, 14, 17, and 20 for hematology measurements and selected safety assessments. Subjects were to be released from the study following a post-study PE on Day 20.
On Day 20 of the study, subjects were to have returned to the clinic for the post-study check and PE. Blood samples for hematology and plasma USB003 were also drawn.
as §1

[4] = tested on: CD34+ cells in peripheral blood; test: Flow cytometry of peripheral blood, CD34+ progenitor cells; USB003 SC once daily for 7 days in healthy men; set-up: key to Subjects with shift, Absolute CD34, N-L (normal to low) / Subjects with shift, Absolute CD34, N-H (normal to high) / Subjects with shift, Absolute CD34, L-N (low to normal) / Subjects with shift, Absolute CD34, H-N (high to normal): — signifies subject with no shift from baseline; conditions: for CD34^+, Absolute, Mean at Baseline: Baseline (Day 1)
Method: as §2, §3, §4, §5

## Asp-Arg-Val-Tyr-Ile-His-Pro [USB003]
[1]; Day 1
  Urine Glucose High/Low Normal/Abnormal: Abnormal
  Urine Glucose Significance: CS AE
  Urine Glucose Value: +1
[1]; Day 3
  Urine Glucose High/Low Normal/Abnormal: N
  Urine Glucose Value: neg
[2]; 200 μg/kg
  CD4, Absolute, Mean at Baseline: 1122.6 cells/μL
[2]; 200 μg/kg, Baseline to Day 8
  Subjects with shift, Absolute CD4, H-N (high to normal): 1
  Subjects with shift, Absolute CD4, L-N (low to normal): —
  Subjects with shift, Absolute CD4, N-H (normal to high): —
  Subjects with shift, Absolute CD4, N-L (normal to low): —
[2]; 200 μg/kg, Baseline to Day 20
  Subjects with shift, Absolute CD4, H-N (high to normal): 1
  Subjects with shift, Absolute CD4, L-N (low to normal): —
  Subjects with shift, Absolute CD4, N-H (normal to high): —
  Subjects with shift, Absolute CD4, N-L (normal to low): —
[2]; 200 μg/kg, Day 3
  CD4, Absolute, Mean Change from Baseline: −88.0 cells/μL
[2]; 200 μg/kg, Day 5
  CD4, Absolute, Mean Change from Baseline: 39.5 cells/μL
[2]; 200 μg/kg, Day 7
  CD4, Absolute, Mean Change from Baseline: 53.6 cells/μL
[2]; 200 μg/kg, Day 8
  CD4, Absolute, Mean Change from Baseline: −24.0 cells/μL
[2]; 200 μg/kg, Day 11
  CD4, Absolute, Mean Change from Baseline: 82.5 cells/μL
[2]; 200 μg/kg, Day 14
  CD4, Absolute, Mean Change from Baseline: 12.1 cells/μL
[2]; 200 μg/kg, Day 17
  CD4, Absolute, Mean Change from Baseline: −70.5 cells/μL
[2]; 200 μg/kg, Day 20
  CD4, Absolute, Mean Change from Baseline: −58.0 cells/μL
[2]; 300 μg/kg
  CD4, Absolute, Mean at Baseline: 734.4 cells/μL
[2]; 300 μg/kg, Baseline to Day 8
  Subjects with shift, Absolute CD4, H-N (high to normal): —
  Subjects with shift, Absolute CD4, L-N (low to normal): 1
  Subjects with shift, Absolute CD4, N-H (normal to high): —
  Subjects with shift, Absolute CD4, N-L (normal to low): —
[2]; 300 μg/kg, Baseline to Day 20
  Subjects with shift, Absolute CD4, H-N (high to normal): —
  Subjects with shift, Absolute CD4, L-N (low to normal): —
  Subjects with shift, Absolute CD4, N-H (normal to high): —
  Subjects with shift, Absolute CD4, N-L (normal to low): 1
[2]; 300 μg/kg, Day 3
  CD4, Absolute, Mean Change from Baseline: 109.6 cells/μL
[2]; 300 μg/kg, Day 5
  CD4, Absolute, Mean Change from Baseline: 108.1 cells/μL
[2]; 300 μg/kg, Day 7
  CD4, Absolute, Mean Change from Baseline: 129.3 cells/μL
[2]; 300 μg/kg, Day 8
  CD4, Absolute, Mean Change from Baseline: 31.1 cells/μL
[2]; 300 μg/kg, Day 11
  CD4, Absolute, Mean Change from Baseline: −29.3 cells/μL
[2]; 300 μg/kg, Day 14
  CD4, Absolute, Mean Change from Baseline: 9.7 cells/μL
[2]; 300 μg/kg, Day 17
  CD4, Absolute, Mean Change from Baseline: −40.0 cells/μL
[2]; 300 μg/kg, Day 20
  CD4, Absolute, Mean Change from Baseline: 48.9 cells/μL
[3]
  PE findings: no changes from baseline
[4]; 200 μg/kg
  CD34^+, Absolute, Mean at Baseline: 2.50 cells/μL
[4]; 200 μg/kg, Baseline to Day 8
  Subjects with shift, Absolute CD34, H-N (high to normal): —
  Subjects with shift, Absolute CD34, L-N (low to normal): —
  Subjects with shift, Absolute CD34, N-H (normal to high): —
  Subjects with shift, Absolute CD34, N-L (normal to low): —
[4]; 200 μg/kg, Baseline to Day 20
  Subjects with shift, Absolute CD34, H-N (high to normal): —
  Subjects with shift, Absolute CD34, L-N (low to normal): —
  Subjects with shift, Absolute CD34, N-H (normal to high): —
  Subjects with shift, Absolute CD34, N-L (normal to low): —
[4]; 200 μg/kg, Day 3
  CD34^+, Absolute, Mean Change from Baseline: 0.23 cells/μL
[4]; 200 μg/kg, Day 5
  CD34^+, Absolute, Mean Change from Baseline: 0.61 cells/μL
[4]; 200 μg/kg, Day 7
  CD34^+, Absolute, Mean Change from Baseline: 1.11 cells/μL
[4]; 200 μg/kg, Day 8
  CD34^+, Absolute, Mean Change from Baseline: 0.33 cells/μL
[4]; 200 μg/kg, Day 11
  CD34^+, Absolute, Mean Change from Baseline: 0.13 cells/μL
[4]; 200 μg/kg, Day 14
  CD34^+, Absolute, Mean Change from Baseline: 0.61 cells/μL
[4]; 200 μg/kg, Day 17
  CD34^+, Absolute, Mean Change from Baseline: −0.40 cells/μL
[4]; 200 μg/kg, Day 20
  CD34^+, Absolute, Mean Change from Baseline: −0.46 cells/μL
[4]; 300 μg/kg
  CD34^+, Absolute, Mean at Baseline: 2.55 cells/μL
[4]; 300 μg/kg, Baseline to Day 8
  Subjects with shift, Absolute CD34, H-N (high to normal): —
  Subjects with shift, Absolute CD34, L-N (low to normal): —
  Subjects with shift, Absolute CD34, N-H (normal to high): —
  Subjects with shift, Absolute CD34, N-L (normal to low): —
[4]; 300 μg/kg, Baseline to Day 20
  Subjects with shift, Absolute CD34, H-N (high to normal): —
  Subjects with shift, Absolute CD34, L-N (low to normal): —
  Subjects with shift, Absolute CD34, N-H (normal to high): —
  Subjects with shift, Absolute CD34, N-L (normal to low): —
[4]; 300 μg/kg, Day 3
  CD34^+, Absolute, Mean Change from Baseline: 1.80 cells/μL
[4]; 300 μg/kg, Day 5
  CD34^+, Absolute, Mean Change from Baseline: 0.56 cells/μL
[4]; 300 μg/kg, Day 7
  CD34^+, Absolute, Mean Change from Baseline: −0.01 cells/μL
[4]; 300 μg/kg, Day 8
  CD34^+, Absolute, Mean Change from Baseline: 0.88 cells/μL
[4]; 300 μg/kg, Day 11
  CD34^+, Absolute, Mean Change from Baseline: −0.74 cells/μL
[4]; 300 μg/kg, Day 14
  CD34^+, Absolute, Mean Change from Baseline: −0.41 cells/μL
[4]; 300 μg/kg, Day 17
  CD34^+, Absolute, Mean Change from Baseline: −0.31 cells/μL
[4]; 300 μg/kg, Day 20
  CD34^+, Absolute, Mean Change from Baseline: −0.35 cells/μL
[4]; last day of treatment, not observed 12 days after administration
  change in the number of CD34+ cells in the peripheral blood: dose-related change
